Data published in patent publication US20050245399A1, “Pyrazole derivatives as herbicidal compositions containing them” (ISHIHARA SANGYO KAISHA, LTD., priority 2004, published 2005).

Experiments:
Format in all cases: in vivo
[1] = system: barnyardgrass (Echinochloa crus-galli L.): ECHCG; assay: Test Example 1 pre-emergence herbicidal activity, ECHCG; settings: visually observed 20th to 23rd day after application
In short: (§1)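 Plants were sown in pots of upland field soil and treated the following day, before emergence, with the formulated compound sprayed in 500 L/ha water. Herbicidal effect was judged by eye 20–23 days later on a 0–100% scale.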

[2] = system: crabgrass (Digitaria sanguinalis L.): DIGSA; assay: Test Example 1 pre-emergence herbicidal activity, DIGSA; settings: visually observed 20th to 23rd day after application
In short: as §1

[3] = system: green foxtail (Setaria viridis L.): SETVI; assay: Test Example 1 pre-emergence herbicidal activity, SETVI; settings: visually observed 20th to 23rd day after application
In short: as §1

[4] = system: redroot pigweed (Amaranthus retroflexus L.): AMARE; assay: Test Example 1 pre-emergence herbicidal activity, AMARE; settings: visually observed 20th to 23rd day after application
In short: as §1

[5] = system: prickly sida (Sida spinosa L.): SEDSP; assay: Test Example 1 pre-emergence herbicidal activity, SIDSP; settings: visually observed 20th to 23rd day after application
In short: as §1

[6] = system: velvetleaf (Abutilon theophrasti): ABUTH; assay: Test Example 1 pre-emergence herbicidal activity, ABUTH; settings: visually observed 20th to 23rd day after application
In short: as §1

[7] = system: rice (Oryza sativa L.): ORYSA; assay: Test Example 1 pre-emergence herbicidal activity, ORYSA; settings: visually observed 20th to 23rd day after application
In short: as §1

[8] = system: wheat (Triticum aestivum L.): TRZAX; assay: Test Example 1 pre-emergence herbicidal activity, TRZAX; settings: visually observed 20th to 23rd day after application
In short: as §1

[9] = system: corn (Zea mays L.): ZEAMX; assay: Test Example 1 pre-emergence herbicidal activity, ZEAMX; settings: visually observed 20th to 23rd day after application
In short: as §1

[10] = system: soybean (Glycine max Merr.): GLXMA; assay: Test Example 1 pre-emergence herbicidal activity, GLXMA; settings: visually observed 20th to 23rd day after application
In short: as §1

[11] = system: barnyardgrass (Echinochloa crus-galli L.), ECHCG; assay: Test Example 2 post-emergence (foliage treatment) herbicidal activity, ECHCG; settings: 63 g a.i./ha
In short: (§2)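 Seeds are sown in upland soil in pots, and seedlings are sprayed once they reach set leaf stages (pigweed 0.1-1.5, barnyardgrass 1.1-2.1, crabgrass 1.0-2.0, rice 1.0-2). The formulated compound goes on in 500 L/ha water containing 0.1% (v/v) spreader. Effect is judged by eye 20-23 days on, as percent control.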

[12] = system: crabgrass (Digitaria sanguinalis L.), DIGSA; assay: Test Example 2 post-emergence (foliage treatment) herbicidal activity, DIGSA; settings: 63 g a.i./ha
In short: as §2

[13] = system: green foxtail (Setaria viridis L.), SETVI; assay: Test Example 2 post-emergence (foliage treatment) herbicidal activity, SETVI; settings: 63 g a.i./ha
In short: (§3)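 Each species was evaluated for growth suppression by eye, 0% matching untreated and 100% meaning death, some 20 to 23 days after a single post-emergence foliar treatment applied in 500 L/ha of water carrying 0.1% (v/v) agricultural spreader.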

[14] = system: redroot pigweed (Amaranthus retroflexus L.), AMARE; assay: Test Example 2 post-emergence (foliage treatment) herbicidal activity, AMARE; settings: 63 g a.i./ha
In short: as §2

[15] = system: prickly sida (Sida spinosa L.), SIDSP; assay: Test Example 2 post-emergence (foliage treatment) herbicidal activity, SIDSP; settings: 63 g a.i./ha
In short: as §3

[16] = system: velvetleaf (Abutilon theophrasti), ABUTH; assay: Test Example 2 post-emergence (foliage treatment) herbicidal activity, ABUTH; settings: 63 g a.i./ha
In short: as §3

[17] = system: rice (Oryza sativa L.), ORYSA; assay: Test Example 2 post-emergence (foliage treatment) herbicidal activity, ORYSA; settings: 63 g a.i./ha
In short: as §2

[18] = system: wheat (Triticum aestivum L.), TRZAX; assay: Test Example 2 post-emergence (foliage treatment) herbicidal activity, TRZAX; settings: 63 g a.i./ha
In short: as §3

[19] = system: corn (Zea mays L.), ZEAMX; assay: Test Example 2 post-emergence (foliage treatment) herbicidal activity, ZEAMX; settings: 63 g a.i./ha
In short: as §3

[20] = system: soybean (Glycine max Merr.), GLXMA; assay: Test Example 2 post-emergence (foliage treatment) herbicidal activity, GLXMA; settings: 63 g a.i./ha
In short: as §3

[21] = system: barnyardgrass (Echinochiloa oryzicola: ECHOR); assay: Test Example 3 water application herbicidal activity (paddy), ECHOR; settings: 63 g a.i./ha, water application under submerged condition at 0.5 leaf stage, visually observed 14th day after application; 0 = untreated control, 100 = complete kill
In short: (§4)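 Compound, as diluted wettable powder or emulsifiable concentrate, was pipetted into flood water at a set active-ingredient dose. Weeds were treated at 0.5-leaf stage after sowing or tuber planting; 2-leaf rice 4 days post-transplant. Control scored visually, 0 untreated to 100 complete kill, weeds day 14, rice day 21.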

[22] = system: japanese bulrush (Scirpus juncoides: SCPJO); assay: Test Example 3 water application herbicidal activity (paddy), SCPJO; settings: 63 g a.i./ha, water application under submerged condition at 0.5 leaf stage, visually observed 14th day after application; 0 = untreated control, 100 = complete kill
In short: as §4

[23] = system: japanese ribbon wapato (Sagittaria pygmaea: SA GPY); assay: Test Example 3 water application herbicidal activity (paddy), SAGPY; settings: 63 g a.i./ha, water application under submerged condition, tubers planted, visually observed 14th day after application; 0 = untreated control, 100 = complete kill
In short: as §4

[24] = system: rice (Oryza sativa L.: ORYSA); assay: Test Example 3 water application herbicidal activity (paddy), transplanted rice ORYSA; settings: 63 g a.i./ha, water application 4th day after transplantation of 2 leaf stage rice, visually observed 21st day after application; 0 = untreated control, 100 = complete kill
In short: as §4

SMILES	growth controlling degree, ECHCO [11]	growth controlling degree, DIGSP [12]	growth controlling degree, SETVI [13]	growth controlling degree, AMARE [14]	growth controlling degree, SIDSP [15]	growth controlling degree, ABUTH [16]	growth controlling degree, ORYSA [17]	growth controlling degree, TRZAX [18]	growth controlling degree, ZEAMX [19]	growth controlling degree, GLXMA [20]	growth controlling degrees (%) ECHOR [21]	growth controlling degrees (%) SCPJO [22]	growth controlling degrees (%) SAGPY [23]	growth controlling degrees (%) ORYSA [24]	Pre-emergence Herbicidal Activity ECHCG (growth controlling degree) ([1]; Rate 63 g a.i./ha)	Pre-emergence Herbicidal Activity DIGSP (growth controlling degree) ([2]; Rate 63 g a.i./ha)	Pre-emergence Herbicidal Activity SETVI (growth controlling degree) ([3]; Rate 63 g a.i./ha)	Pre-emergence Herbicidal Activity AMARE (growth controlling degree) ([4]; Rate 63 g a.i./ha)	Pre-emergence Herbicidal Activity SIDSP (growth controlling degree) ([5]; Rate 63 g a.i./ha)	Pre-emergence Herbicidal Activity ABUTH (growth controlling degree) ([6]; Rate 63 g a.i./ha)	also measured
COc1c(Cl)cc(F)c(-c2nn(C)c(OC(F)F)c2Cl)c1N(C(=O)OCCl)C(=O)OCCl [Compound 1-55]	60%	0%	30%	100%	100%	100%	50%	10%	10%	30%	100%	95%	100%	50%							Pre-emergence Herbicidal Activity ECHCG (growth controlling degree) ([1]; Rate 125 g a.i./ha): 50%; Pre-emergence Herbicidal Activity DIGSP (growth controlling degree) ([2]; Rate 125 g a.i./ha): 95%; Pre-emergence Herbicidal Activity SETVI (growth controlling degree) ([3]; Rate 125 g a.i./ha): 100%; Pre-emergence Herbicidal Activity AMARE (growth controlling degree) ([4]; Rate 125 g a.i./ha): 100%; Pre-emergence Herbicidal Activity SIDSP (growth controlling degree) ([5]; Rate 125 g a.i./ha): 95%; Pre-emergence Herbicidal Activity ABUTH (growth controlling degree) ([6]; Rate 125 g a.i./ha): 70%; Pre-emergence Herbicidal Activity ORYSA (growth controlling degree) ([7]; Rate 125 g a.i./ha): 10%; Pre-emergence Herbicidal Activity TRZAX (growth controlling degree) ([8]; Rate 125 g a.i./ha): 20%; Pre-emergence Herbicidal Activity ZEAMX (growth controlling degree) ([9]; Rate 125 g a.i./ha): 0%; Pre-emergence Herbicidal Activity GLXMA (growth controlling degree) ([10]; Rate 125 g a.i./ha): 0%
COc1ccc(COC(=O)Nc2c(OC)c(Cl)cc(F)c2-c2nn(C)c(OC(F)F)c2Cl)cc1 [Compound 1-56]	90%	98%	100%	100%	100%	100%	90%	50%	80%	100%	100%	95%	80%	35%	50%	70%	80%	100%	70%	60%	Pre-emergence Herbicidal Activity ORYSA (growth controlling degree) ([7]; Rate 63 g a.i./ha): 20%; Pre-emergence Herbicidal Activity TRZAX (growth controlling degree) ([8]; Rate 63 g a.i./ha): 0%; Pre-emergence Herbicidal Activity ZEAMX (growth controlling degree) ([9]; Rate 63 g a.i./ha): 10%; Pre-emergence Herbicidal Activity GLXMA (growth controlling degree) ([10]; Rate 63 g a.i./ha): 0%
COc1ccc(OC(=O)Nc2c(OC)c(Cl)cc(F)c2-c2nn(C)c(OC(F)F)c2Cl)cc1 [Compound 1-57]	100%	100%	100%	100%	100%	100%	95%	40%	90%	90%	100%	100%	100%	50%	70%	80%	95%	100%	70%	60%	Pre-emergence Herbicidal Activity ORYSA (growth controlling degree) ([7]; Rate 63 g a.i./ha): 20%; Pre-emergence Herbicidal Activity TRZAX (growth controlling degree) ([8]; Rate 63 g a.i./ha): 30%; Pre-emergence Herbicidal Activity ZEAMX (growth controlling degree) ([9]; Rate 63 g a.i./ha): 0%; Pre-emergence Herbicidal Activity GLXMA (growth controlling degree) ([10]; Rate 63 g a.i./ha): 0%
COCCOC(=O)Nc1c(OC)c(Cl)cc(F)c1-c1nn(C)c(OC(F)F)c1Cl [Compound 1-61]	100%	100%	100%	100%	100%	100%	80%	60%	80%	80%	100%	90%	100%	95%	100%	100%	100%	100%	100%	100%	Pre-emergence Herbicidal Activity ORYSA (growth controlling degree) ([7]; Rate 63 g a.i./ha): 70%; Pre-emergence Herbicidal Activity TRZAX (growth controlling degree) ([8]; Rate 63 g a.i./ha): 50%; Pre-emergence Herbicidal Activity ZEAMX (growth controlling degree) ([9]; Rate 63 g a.i./ha): 30%; Pre-emergence Herbicidal Activity GLXMA (growth controlling degree) ([10]; Rate 63 g a.i./ha): 10%
